Reference: patent US20130184316A1, “METHODS FOR DIAGNOSING AND TREATING CONCUSSIVE DISORDERS” (priority 2010, published 2013)

What was measured:
[1] = test system: patients with type-2 episodic ataxia (EA2); conditions: literature reports; cited from earlier work
[2] = test system: subject with PCS; assay: PCS Symptom Cluster Scale, weighted point system; format: in vivo, human; set-up: key to Raw score: Vertigo / Raw score: Persistence or perseveration of proprioceptive sensations (e.g., feeling motion after coming to rest) / Raw score: Diplopia / Raw score: Impairment of gait: 0 never, 1 sometimes, 2 often, 3 always/nearly always present; key to Weighted Score: Vertigo / Weighted Score: Insomnia / Weighted Score: Difficulty in standing for more than 5 minutes: raw frequency score (0-3) multiplied by weight factor; conditions: after therapy with 4-AP
Description: In one embodiment, a point system is presented in which symptoms from each cluster are further assigned a point value. The evaluation should rate the frequency of each symptom over the span of about one week prior to the assessment, according to the following scale: 0—Never present, 1—Sometimes present, 2—Often present, 3—Always or Nearly always present. In this context, occurrence of a symptom from about 1 to 5 times per week would classify as sometimes present, occurrence from about 5 to about 10 times per week would classify as often present, and occurrence about 10 or more times per week would classify as always or nearly always present. The rating number for each item should be recorded as the raw score. Each raw score should then be multiplied by the weight factor to obtain the weighted score.
To achieve this goal, a point system was applied to discrete symptoms within symptom Clusters to specifically define a class of PCS patient that will be likely to benefit from treatment from 4-AP. According to the weighted point system, symptoms from each cluster are further assigned a point value. The frequency of each symptom over the span of about one week prior to the assessment was rated according to the following scale: 0—Never present, 1—Sometimes present, 2—Often present, 3—Always or Nearly always present. The rating number for each item was recorded as the raw score, and the raw score was then multiplied by the weight factor to obtain the weighted score.

[3] = test system: subject with PCS; assay: Videonystagmography (VNG); format: in vivo, human
Protocol: (§1) A single subject, prospective, double blind, placebo controlled trial of 4AP was then conducted in this individual. IRB approvals were obtained from all participating institutions and Subject gave written informed consent for all parts of the study. After a 4-week medication washout period, the Subject was randomly assigned a week's course of placebo, followed by a weeklong medication washout period, followed by another week on 4-AP (10 mg twice daily). Based on the medication half-life, a one week washout period was presumed to be sufficient. Subject and assessors were blinded to treatment allocation.
(§2) Measurements conducted at identical times at baseline and on each of the subsequent 3 weeks of the study included: • Balance and mobility assessed by Hi-Mat test (Arch. Phys. Med. Rehabil. 2006, 87(3), 437-442; hereby incorporated by reference in its entirety). • Subjective symptom assessment using the Rivermead Post-Concussion Questionnaire (Clin. Rehabil. 2005, 19(8), 878-887; hereby incorporated by reference in its entirety). • Neuropsychological assessment, consisting of the digit span and cancellation tests from the Wechsler Adult Intelligence Scale, 4th edition (Coalson, D. L., Engi-Raiford, S. Wechsler Adult Intelligence Scale, 4th Ed., in Technical and Interpretive Manual, 4th Ed., San Antonio: Pearson (2008); hereby incorporated by reference in its entirety), the California Verbal Learning Test II (CVLT) (Delis, D. C., Kramer, J. H., Kaplan, E., Ober, B. A. in CVLT-II Manual, San Antonio: The Psychological Corporation (2000); hereby incorporated by reference in its entirety), the Verbal Fluency Test (Connors Continuous Performance Test Computer II Program Version 5 Users Manual, Toronto: Multi-Health Systems, Inc. (2002); hereby incorporated by reference in its entirety), and the Connors Continuous Performance Test (J. Nervous Ment. Dis. 1985, 173(6), 353-357; hereby incorporated by reference in its entirety). • Videonystagmography (VNG) and rotary chair (RC) vestibular testing
Based on the observation of significant central findings on videonystagmography and rater-observed reduction in abnormal movements while on the active medication, the Subject was asked to return for 2 additional rounds of open-label testing, 5 and 9 weeks after conclusion of the formal study. The Subject resumed taking 4AP 10 mg twice daily immediately after the conclusion of the blinded testing.

[4] = test system: subject with PCS; assay: California Verbal Learning Test II (CVLT); format: in vivo, human
Protocol: as §1
as §2, with “testing […]” for “testing”

[5] = Cluster A, raw score x weight 1, prior to therapy 3
[6] = Cluster A, raw score x weight 3, prior to therapy 6
[7] = Cluster B, raw score x weight 4, prior to therapy 8
[8] = Cluster C, raw score x weight 2, prior to therapy 2
[9] = Cluster C, raw score x weight 3, prior to therapy 9

## Nc1ccncc1 [4-AP, 4-Amino pyridine]
[1]
  Symptoms of EA2 (including downbeat nystagmus): both relieved and prevented
[2]; Cluster A, prior to therapy 0
  Raw score: Difficulty in standing for more than 5 minutes: 0
[2]; Cluster A, prior to therapy 1
  Raw score: Difficulty moving body position (e.g., from chair to bed or toilet): 0
[2]; Cluster A, prior to therapy 2
  Raw score: Difficulty maintaining balance while looking over shoulder: 0
  Raw score: Difficulty rising unaided from a sitting position or from sitting on the floor: 0
  Raw score: Impairment of gait: 0
  Raw score: Inability to maintain stability while standing with eyes closed or with feet together: 1 (Sometimes present)
[2]; Cluster A, prior to therapy 3
  Raw score: Difficulty conversing while walking: 1 (Sometimes present)
  Raw score: Difficulty tossing objects from hand to hand while walking: 1 (Sometimes present)
  Raw score: Inability to maintain heel-to-toe gait: 1 (Sometimes present)
[2]; Cluster A, raw score x weight 1, prior to therapy 1
  Weighted Score: Difficulty moving body position (e.g., from chair to bed or toilet): 0
[2]; Cluster A, raw score x weight 1, prior to therapy 2
  Weighted Score: Difficulty rising unaided from a sitting position or from sitting on the floor: 0
[2]; [5]
  Weighted Score: Difficulty tossing objects from hand to hand while walking: 1
  Weighted Score: Inability to maintain heel-to-toe gait: 1
[2]; Cluster A, raw score x weight 2, prior to therapy 0
  Weighted Score: Difficulty in standing for more than 5 minutes: 0
[2]; Cluster A, raw score x weight 2, prior to therapy 4
  Weighted Score: Difficulty maintaining balance while looking over shoulder: 0
[2]; [6]
  Weighted Score: Impairment of gait: 0
  Weighted Score: Inability to maintain stability while standing with eyes closed or with feet together: 3
[2]; Cluster A, raw score x weight 3, prior to therapy 9
  Weighted Score: Difficulty conversing while walking: 3
[2]; Cluster B, prior to therapy 2
  Raw score: Oscillopsia (perception of stationary objects moving): 0
  Raw score: Persistence or perseveration of proprioceptive sensations (e.g., feeling motion after coming to rest): 0
  Raw score: Persistent sensation of walking on soft or moving surface: 0
  Raw score: Vertigo: 0
  Raw score: Vestibular seizures: 0
[2]; Cluster B, prior to therapy 3
  Raw score: Persistent sensation of being off-balance or tilted: 1 (Sometimes present)
[2]; Cluster B, raw score x weight 2, prior to therapy 6
  Weighted Score: Vertigo: 0
[2]; Cluster B, raw score x weight 3, prior to therapy 6
  Weighted Score: Persistent sensation of walking on soft or moving surface: 0
[2]; [7]
  Weighted Score: Oscillopsia (perception of stationary objects moving): 0
  Weighted Score: Persistence or perseveration of proprioceptive sensations (e.g., feeling motion after coming to rest): 0
[2]; Cluster B, raw score x weight 4, prior to therapy 12
  Weighted Score: Persistent sensation of being off-balance or tilted: 4
[2]; Cluster B, raw score x weight 5, prior to therapy 10
  Weighted Score: Vestibular seizures: 0
[2]; Cluster C, prior to therapy 1
  Raw score: Apathy, listlessness, blunting of affect: 0
  Raw score: Emotional lability or exaggerated emotions: 0
  Raw score: Persistent or frequent irritability: 0
[2]; Cluster C, prior to therapy 2
  Raw score: Persisting difficulty with registration or retention of newly presented information in any modality: 1 (Sometimes present)
[2]; Cluster C, prior to therapy 3
  Raw score: Inability to perform two simple tasks concurrently (multitasking): 1 (Sometimes present)
  Raw score: Inability to tolerate distraction (e.g., inability to complete simple task or resume conversation after interruption): 1 (Sometimes present)
  Raw score: Intolerance of noise, light, or commotion: 1 (Sometimes present)
  Raw score: Slowed speed of mental processing or responding: 0
[2]; [8]
  Weighted Score: Apathy, listlessness, blunting of affect: 0
  Weighted Score: Emotional lability or exaggerated emotions: 0
  Weighted Score: Persistent or frequent irritability: 0
[2]; Cluster C, raw score x weight 2, prior to therapy 4
  Weighted Score: Persisting difficulty with registration or retention of newly presented information in any modality: 2
[2]; Cluster C, raw score x weight 2, prior to therapy 6
  Weighted Score: Slowed speed of mental processing or responding: 0
[2]; [9]
  Weighted Score: Inability to perform two simple tasks concurrently (multitasking): 3
  Weighted Score: Inability to tolerate distraction (e.g., inability to complete simple task or resume conversation after interruption): 3
[2]; Cluster C, raw score x weight 4, prior to therapy 12
  Weighted Score: Intolerance of noise, light, or commotion: 4
[2]; Cluster D, prior to therapy 0
  Raw score: Diplopia: 0
[2]; Cluster D, prior to therapy 1
  Raw score: Headache: 2 (Often present)
  Raw score: Nystagmus: 0
[2]; Cluster D, prior to therapy 2
  Raw score: Anergy, chronic fatigue, hypersomnia: 0
  Raw score: Insomnia: 2 (Often present)
[2]; Cluster D, prior to therapy 3
  Raw score: Difficulty in accommodation or focus: 1 (Sometimes present)
  Raw score: Impairment of tracking an object in motion: 0
[2]; Cluster D, raw score x weight 1, prior to therapy 2
  Weighted Score: Insomnia: 2
[2]; Cluster D, raw score x weight 2, prior to therapy 0
  Weighted Score: Diplopia: 0
[2]; Cluster D, raw score x weight 2, prior to therapy 2
  Weighted Score: Headache: 4
[2]; Cluster D, raw score x weight 3, prior to therapy 6
  Weighted Score: Anergy, chronic fatigue, hypersomnia: 0
[2]; Cluster D, raw score x weight 3, prior to therapy 9
  Weighted Score: Difficulty in accommodation or focus: 3
[2]; Cluster D, raw score x weight 4, prior to therapy 4
  Weighted Score: Nystagmus: 0
[2]; Cluster D, raw score x weight 4, prior to therapy 12
  Weighted Score: Impairment of tracking an object in motion: 0
[2]; prior to therapy 165
  Total weighted score of symptoms: 33 points
[3]; test 4 (Active, 4-AP 10 mg twice daily), tests 1-3: 6, 2, 2
  Head left positioning, left beating non-fatiguing nystagmus: 4 degrees/second
[3]; test 5 (1st open-label round, 4AP 10 mg twice daily)
  Head left position, left beating non-fatiguing nystagmus: 2 degrees/second
[3]; test 6 (2nd open-label round, 4AP 10 mg twice daily), immediate on tests 1-4
  Delay of onset of left beating nystagmus in left dix hallpike position: 50 s
[3]; tests 1-4, including active phase
  Down beating nystagmus with head tilted down: present
[4]; session 4 Active: blinded, one week on 4-AP 10 mg twice daily, baseline 27, placebo 21, washout 65
  CVLT-II immediate, percentile: 18 percentile
[4]; session 5 1st Open: open-label 4AP 10 mg twice daily, 5 weeks after formal study
  CVLT-II immediate, percentile: 69 percentile
[4]; session 6 2nd Open: open-label 4AP 10 mg twice daily, 9 weeks after formal study
  CVLT-II immediate, percentile: 93 percentile
